ChEMBL document CHEMBL1201862, “PubChem BioAssay data set” (2004)
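In this assay, cells in 96-well plates receive the compound at five concentrations for 48 hours. Endpoints are linearly interpolated between the surrounding concentrations. At the GI50, growth is halved.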 The source made the active and inactive calls. Cut-off read from the data, not from the text of the source: active = GI50 up to about 1.1 µM and inactive = higher. Non-standard residues stand in square brackets, D forms with d. Residues, ends and D or L forms follow the SMILES beside them. *: point of attachment. Ac5c = NC1(C(=O)O)CCCC1; Boc = CC(C)(C)OC(=O)*; tBu = CC(C)(C)*

Key:
Experiment in all cases: NCI anticancer screen, dose series, 48 h
[1] = tested on: ACHN
[2] = tested on: UO-31
[3] = tested on: NCI-H23
[4] = tested on: SF-295
[5] = tested on: Malme-3M
[6] = tested on: MOLT-4
[7] = tested on: SNB-19
[8] = tested on: NCI-H522
[9] = tested on: UACC-62
[10] = tested on: HL-60
[11] = tested on: SK-OV-3
[12] = tested on: MCF7
[13] = tested on: SN12C
[14] = tested on: PC-3
[15] = tested on: 786-0
[16] = tested on: T47D
[17] = tested on: NCI-H460
[18] = tested on: LOX IMVI
[19] = tested on: SNB-75
[20] = tested on: HCC 2998

Structure (SMILES)	GI50 [1]	GI50 [2]	GI50 [3]	GI50 [4]	GI50 [5]	GI50 [6]	GI50 [7]	GI50 [8]	GI50 [9]	GI50 [10]	GI50 [11]	GI50 [12]	GI50 [13]	GI50 [14]	GI50 [15]	GI50 [16]	GI50 [17]	GI50 [18]	GI50 [19]	GI50 [20]
NCC1OC(n2cnc3c(N)ncnc32)CC1O (stereo not drawn)	> 100 µM (inactive)	> 100 µM (inactive)	> 100 µM (inactive)	> 100 µM (inactive)	> 100 µM (inactive)	> 100 µM (inactive)	> 100 µM (inactive)	> 100 µM (inactive)	> 100 µM (inactive)	> 100 µM (inactive)	> 100 µM (inactive)	> 100 µM (inactive)	> 100 µM (inactive)	> 100 µM (inactive)	> 100 µM (inactive)	> 100 µM (inactive)	> 100 µM (inactive)	> 100 µM (inactive)	> 100 µM (inactive)	
CCC(CC)(CO)CNc1cc(Cl)nc(N)n1	> 100 µM (inactive)	> 100 µM (inactive)	> 100 µM (inactive)	> 100 µM (inactive)	> 100 µM (inactive)	> 100 µM (inactive)		> 100 µM (inactive)	> 100 µM (inactive)	> 100 µM (inactive)	> 100 µM (inactive)	> 100 µM (inactive)	> 100 µM (inactive)	> 100 µM (inactive)	> 100 µM (inactive)	45.6 µM (inactive)	> 100 µM (inactive)	> 100 µM (inactive)	> 100 µM (inactive)	
N#Cc1c(O)nc2nn3c4ccc5ccccc5c4nnc3c2c1-c1ccc(Cl)cc1	2.49 µM (inactive)	2.38 µM (inactive)	1.97 µM (inactive)	1.84 µM (inactive)	1.93 µM (inactive)	2.4 µM (inactive)	3.13 µM (inactive)	1.5 µM (inactive)	1.49 µM (inactive)	0.421 µM (active)	3.3 µM (inactive)	1.75 µM (inactive)	3.34 µM (inactive)	2.43 µM (inactive)	2.59 µM (inactive)	0.313 µM (active)	2.24 µM (inactive)	1.83 µM (inactive)		2.68 µM (inactive)
CN(C)CCCN1c2ccccc2C(C)(C)c2ccccc21 [DIMETACRINE]	15.3 µM (inactive)	13.9 µM (inactive)	16.3 µM (inactive)	17.4 µM (inactive)	14.7 µM (inactive)	13.7 µM (inactive)	15.5 µM (inactive)	14.8 µM (inactive)	13.1 µM (inactive)	15.1 µM (inactive)	13.9 µM (inactive)	14.8 µM (inactive)	14.4 µM (inactive)	13.7 µM (inactive)	14.4 µM (inactive)	17.2 µM (inactive)	13.6 µM (inactive)	15.1 µM (inactive)	10.9 µM (inactive)	
O=S(=O)(Nc1ccc2ccc3cccc4ccc1c2c34)c1ccccc1	36.1 µM (inactive)	35.1 µM (inactive)	96.6 µM (inactive)	10.4 µM (inactive)	38.9 µM (inactive)	8.77 µM (inactive)	85.5 µM (inactive)	4.27 µM (inactive)	8.95 µM (inactive)	37.7 µM (inactive)	58.3 µM (inactive)	43.4 µM (inactive)	15 µM (inactive)	14.3 µM (inactive)	29 µM (inactive)	28.4 µM (inactive)	37.3 µM (inactive)	40.6 µM (inactive)	55.7 µM (inactive)	
CCn1nc2c3c(ncn3C(C)(C)O2)c1=O	> 100 µM (inactive)	> 100 µM (inactive)	> 100 µM (inactive)	> 100 µM (inactive)	> 100 µM (inactive)	> 100 µM (inactive)	> 100 µM (inactive)	> 100 µM (inactive)	> 100 µM (inactive)	> 100 µM (inactive)	> 100 µM (inactive)	> 100 µM (inactive)	> 100 µM (inactive)	> 100 µM (inactive)	> 100 µM (inactive)	> 100 µM (inactive)	> 100 µM (inactive)	> 100 µM (inactive)		> 100 µM (inactive)
C/C=C1/CC(C)C(C)(O)C(=O)OCC2C(O)CN3CCC(OC1=O)C23 (stereo not drawn)	> 100 µM (inactive)		> 100 µM (inactive)	> 100 µM (inactive)		> 100 µM (inactive)	> 100 µM (inactive)	68.9 µM (inactive)	> 100 µM (inactive)	> 100 µM (inactive)	> 100 µM (inactive)	> 100 µM (inactive)	> 100 µM (inactive)	> 100 µM (inactive)	> 100 µM (inactive)	> 100 µM (inactive)	> 100 µM (inactive)	> 100 µM (inactive)	> 100 µM (inactive)	> 100 µM (inactive)
C=C1CCC2CC1[C@@H](C(=O)c1c[nH]c3ccccc13)NC2(C)C (stereo partly drawn)	> 37.5 µM (inactive)	29.5 µM (inactive)	> 37.5 µM (inactive)	> 37.5 µM (inactive)	> 37.5 µM (inactive)	> 37.5 µM (inactive)		> 37.5 µM (inactive)	18.7 µM (inactive)	34.8 µM (inactive)		> 37.5 µM (inactive)	> 37.5 µM (inactive)	19.5 µM (inactive)	> 37.5 µM (inactive)	30.6 µM (inactive)	> 37.5 µM (inactive)	> 37.5 µM (inactive)	> 37.5 µM (inactive)	10.7 µM (inactive)
Cc1c(-c2ccccc2)c(C#N)c2nnc(C(N)=O)c(N)n12	> 100 µM (inactive)	> 100 µM (inactive)	> 100 µM (inactive)	> 100 µM (inactive)	> 100 µM (inactive)	> 100 µM (inactive)	> 100 µM (inactive)	> 100 µM (inactive)	> 100 µM (inactive)	> 100 µM (inactive)	70.5 µM (inactive)	> 100 µM (inactive)	> 100 µM (inactive)	> 100 µM (inactive)	> 100 µM (inactive)	> 100 µM (inactive)	> 100 µM (inactive)	> 100 µM (inactive)		> 100 µM (inactive)
CC1(C)O[C@H]2OC(CO)C(N=[N+]=[N-])[C@H]2O1 (stereo partly drawn)	> 100 µM (inactive)	> 100 µM (inactive)	> 100 µM (inactive)	> 100 µM (inactive)	> 100 µM (inactive)	> 100 µM (inactive)	> 100 µM (inactive)	> 100 µM (inactive)	> 100 µM (inactive)	> 100 µM (inactive)		> 100 µM (inactive)	> 100 µM (inactive)	> 100 µM (inactive)	> 100 µM (inactive)	> 100 µM (inactive)	> 100 µM (inactive)	> 100 µM (inactive)	> 100 µM (inactive)	> 100 µM (inactive)
CC#Cc1cc2c(cc1O)CC[C@@H]1[C@@H]2CC[C@]2(C)[C@@H](O)CC[C@@H]12	6.17 µM (inactive)	9.23 µM (inactive)	1.54 µM (inactive)	0.406 µM (active)	0.582 µM (active)	0.621 µM (active)	2.4 µM (inactive)	0.289 µM (active)		0.311 µM (active)	1.81 µM (inactive)	0.685 µM (active)	6.15 µM (inactive)	3.92 µM (inactive)	1.58 µM (inactive)	3.15 µM (inactive)	0.475 µM (active)	0.94 µM (active)	1.4 µM (inactive)	5.89 µM (inactive)
CCOC(=O)c1cc2cc3c4c(c2oc1=O)CCCN4CCC3	34 µM (inactive)	25.9 µM (inactive)	30.1 µM (inactive)	40.4 µM (inactive)	49.3 µM (inactive)	25.8 µM (inactive)	42.6 µM (inactive)	19.4 µM (inactive)		16.9 µM (inactive)		23.2 µM (inactive)	30.8 µM (inactive)	29 µM (inactive)	40 µM (inactive)	15.2 µM (inactive)	48.3 µM (inactive)	26.1 µM (inactive)		78.9 µM (inactive)
O=C1/C(=C/c2ccc(Br)s2)NC(=S)N1CN1CCCCC1	46 µM (inactive)	24.5 µM (inactive)	32.4 µM (inactive)	30.5 µM (inactive)	58.7 µM (inactive)	23.4 µM (inactive)	46.9 µM (inactive)	23.3 µM (inactive)	26.6 µM (inactive)	15.4 µM (inactive)		20.6 µM (inactive)	34.8 µM (inactive)	28.2 µM (inactive)	36.4 µM (inactive)	30.5 µM (inactive)	36.1 µM (inactive)	21.5 µM (inactive)	44.6 µM (inactive)	31 µM (inactive)
CC(OC(C)(C)C)C1NC(=O)C(CCCCNC(=O)OC(C)(C)C)NC(=O)C(Cc2c[nH]c3ccccc23)NC(=O)C(Cc2ccccc2)NC(=O)C2(CCCC2)NC(=O)C(Cc2ccccc2)NC1=O (stereo not drawn) (cyclo([Ac5c]FWK(Boc)T(tBu)F); configuration not given here)	32.4 µM (inactive)		36.9 µM (inactive)	29.9 µM (inactive)	27.3 µM (inactive)	7.71 µM (inactive)	34.2 µM (inactive)	21.4 µM (inactive)	21.6 µM (inactive)	17.5 µM (inactive)	68.4 µM (inactive)	18.5 µM (inactive)	29.9 µM (inactive)	26.9 µM (inactive)	16 µM (inactive)	10.4 µM (inactive)	36.7 µM (inactive)	19.2 µM (inactive)		19 µM (inactive)
Cc1ccc2nc(-c3ccccc3)cc(=O)n2c1	> 100 µM (inactive)		> 100 µM (inactive)	> 100 µM (inactive)	> 100 µM (inactive)	> 100 µM (inactive)	> 100 µM (inactive)	> 100 µM (inactive)	> 100 µM (inactive)	> 100 µM (inactive)	> 100 µM (inactive)	> 100 µM (inactive)	> 100 µM (inactive)	> 100 µM (inactive)	> 100 µM (inactive)	38.6 µM (inactive)	> 100 µM (inactive)		> 100 µM (inactive)	> 100 µM (inactive)
